Columns and labels:
HIV-1IIIB = format: cell-based, Human immunodeficiency virus type 1; settings: HIV-1IIIB infected MT-4 cells, 5 days, mean ± S.E.M (n=3)
[1] = tested on: Human T-lymphocytic MT-4 cells; test: Cytotoxicity test, MTT colorimetric assay; format: cell-based; settings: 5 days, percentage inhibition of cell growth, mean ± S.E.M (n=3)

| SMILES | EmaxAV (maximum antiviral effect %, CPE inhibition %) (HIV-1IIIB) | EmaxC (maximum cytotoxic effect %) [1] |
| --- | --- | --- |
| Cc1cn([C@H]2C[C@H](N=[N+]=[N-])[C@@H](CO)O2)c(=O)[nH]c1=O [AZT, zidovudine] | 83% |  |
| Cc1ccnc2c1NC(=O)c1cccnc1N2C1CC1 [NVP, nevirapine] |  | > 35% |
